Source: patent publication US20220378923A1, “BET DEGRADER” (KYOWA KIRIN CO., LTD., priority 2019, published 2022)

Test system: MYC mRNA expression in SU-DHL-4 cells
Experiment: Suppressive effect on MYC mRNA expression (Test Example 2)
Type: cell-based, human
Conditions: test compound 100 nmol/L, 6 hours, qRT-PCR corrected by ACTB, GAPDH; for inhibition at 0.1 µM: Homo sapiens, HPRT1, read-out: Suppression Rate of MYC mRNA Expression (%)
Experimental: The cells were passaged twice a week at a volume of 20-40 mL so as to maintain a cell concentration of 1×10^6 cells/mL or less. The cultured SU-DHL-4 cells were seeded at 6×10^5 cells/well in a transparent 6-well plate (Code No. 140675, Thermo Fisher Scientific). After seeding, the cells were precultured at 37° C. in a carbon dioxide gas incubator for 18 to 25 hours. […] At this time, the final concentration of DMSO was adjusted to be 0.1 vol %. After adding the test compound, the cells were cultured at 37° C. in a carbon dioxide gas incubator for 6 hours. Then, the cells were collected by centrifugation and used for extraction of mRNA. mRNA extraction from cells was performed using Maxwell® 16 LEV simplyRNA Purification Kits (Code No. AS1270, Promega). The mRNA recovery protocol was performed according to the manufacturer's recommended protocol attached to the kit. […] The cDNA conversion was performed, according to the manufacturer's recommended protocol attached to the kit, in 0.020 mL of the reaction solution, and GeneAmp® PCR System 9700 (Applied Biosystems) was used. The cDNA-converted sample was diluted 10-fold by adding 0.180 mL of RNase Free Water (Code No. 10977-023, Thermo Fisher Scientific) and used for quantitative real-time polymerase chain reaction (qRT-PCR). For the calibration curve of qRT-PCR, 0.08 mL of RNase Free Water was added to a cDNA sample using DMSO as a test compound for 5-fold dilution. Further, two 5-fold dilutions were prepared stepwise, and these three samples were used as the calibration curve samples. The following reagents were used for qRT-PCR: TaqMan Gene Expression Assays, Inventoried (Primer probe: Code No. 4331182, Thermo Fisher Scientific, Assay ID: (i) MYC: Hs00153408_m1, (ii) ACTB: Hs01060665_g1, (iii) GAPDH: Hs04420697_g1, (iv) HPRT1: […] Universal PCR Master Mix, no AmpEraseR UNG (Master Mix: Code No. 4367846, Thermo Fisher Scientific). Primer probe (0.001 mL), Master Mix (0.010 mL), water (0.004 mL) and the diluted cDNA sample (0.005 mL) were mixed, and qRT-PCR analysis was performed. For qRT-PCR analysis, QuantStudio 7 Flex (Thermo Fisher Scientific) or 7500 Fast Real-Time PCR (Applied Biosystems) was used to measure in Fast mode and analyze. […] Corrected MYC expression=A/B • A: MYC expression level • B: Geometric mean of expression levels of ACTB, GAPDH and HPRT1 Using the corrected values, the suppression rate of MYC expression for the wells to which the test compound was not added was calculated by the following formula. […] Corrected MYC expression level in a well containing test compound • D: Corrected MYC expression level in a well to which test compound was not added

Row | Compound | inhibition at 0.1 µM [%] | Suppression Rate of MYC mRNA Expression (%) (HPRT1)
1 | CCC(=O)N1c2ccccc2[C@H](Nc2ccc(C(=O)NCCCNC(=O)c3ccc(N[C@@H]4C[C@H](C)N(C(=O)CC)c5ccccc54)cc3)cc2)C[C@@H]1C (relative stereo) [Compound 1a, N,N′-(Propane-1,3-diyl)bis(4-{[(2S*,4R*)-2-methyl-1-propionyl-1,2,3,4-tetrahydroquinolin-4-yl]amino}benzamide)] | 96.7 | –
2 | CCC(=O)N1c2ccccc2[C@H](Nc2ccc(C(=O)NC3CCN(C(=O)c4ccc(N[C@@H]5C[C@H](C)N(C(=O)CC)c6ccccc65)cc4)CC3)cc2)C[C@@H]1C (relative stereo) [Compound 1c, 4-{[(2S*,4R*)-2-Methyl-1-propionyl-1,2,3,4-tetrahydroquinolin-4-yl]amino}-N-[1-(4-{[(2S*,4R*)-2-methyl-1-propionyl-1,2,3,4-tetrahydroquinolin-4-yl]amino}benzoyl)piperidin-4-yl]benzamide] | 97.3 | –
3 | CCC(=O)N1c2ccccc2[C@H](Nc2ccc(NC(=O)CCNC(=O)c3ccc(N[C@@H]4C[C@H](C)N(C(=O)CC)c5ccccc54)cc3)cc2)C[C@@H]1C (relative stereo) [Compound 2f, 4-{[(2S,4R)-2-Methyl-1-propionyl-1,2,3,4-tetrahydroquinolin-4-yl]amino}-N-{3-[(4-{[(2S*,4R*)-2-methyl-1-propionyl-1,2,3,4-tetrahydroquinolin-4-yl]amino}phenyl)amino]-3-oxopropyl}benzamide] | 98.6 | –
4 | CCC(=O)N1c2ccccc2[C@H](Nc2ccc(NC(=O)C3CN(C(=O)c4ccc(N[C@@H]5C[C@H](C)N(C(=O)CC)c6ccccc65)cc4)C3)cc2)C[C@@H]1C (relative stereo) [Compound 2h, 1-(4-{[(2S,4R)-2-Methyl-1-propionyl-1,2,3,4-tetrahydroquinolin-4-yl]amino}benzoyl)-N-(4-{[(2S*,4R*)-2-methyl-1-propionyl-1,2,3,4-tetrahydroquinolin-4-yl]amino}phenyl)azetidine-3-carboxamide] | 98.2 | –
5 | CCC(=O)N1c2ccccc2[C@H](Nc2ccc(NC(=O)CCSc3ccc(N[C@@H]4C[C@H](C)N(C(=O)CC)c5ccccc54)cc3)cc2)C[C@@H]1C (relative stereo) [Compound 4e, N-(4-{[(2S*,4R*)-2-Methyl-1-propionyl-1,2,3,4-tetrahydroquinolin-4-yl]amino}phenyl)-3-[(4-{[(2S,4R)-2-methyl-1-propionyl-1,2,3,4-tetrahydroquinolin-4-yl]amino}phenyl)thio]propanamide] | 98.4 | –
6 | CCC(=O)N1c2ccccc2[C@H](Nc2ccc(NC(=O)N3CCN(C(=O)c4ccc(N[C@@H]5C[C@H](C)N(C(=O)CC)c6ccccc65)cc4)CC3)cc2)C[C@@H]1C (relative stereo) [Compound 6m, 4-(4-(((2S,4R)-2-Methyl-1-propionyl-1,2,3,4-tetrahydroquinolin-4-yl)amino)benzoyl)-N-(4-(((2S*,4R*)-2-methyl-1-propionyl-1,2,3,4-tetrahydroquinolin-4-yl)amino)phenyl)piperazine-1-carboxamide] | 97 | –
7 | CCC(=O)N1c2ccccc2[C@H](Nc2ccc(NC(=O)C#CCNC(=O)C3CCC(N[C@@H]4C[C@H](C)N(C(=O)CC)c5ccccc54)CC3)cc2)C[C@@H]1C (relative stereo) [Compound 8g, (1R,4r)-4-(((2S*,4R*)-2-Methyl-1-propionyl-1,2,3,4-tetrahydroquinolin-4-yl)amino)-N-(4-((4-(((2S,4R)-2-methyl-1-propionyl-1,2,3,4-tetrahydroquinolin-4-yl)amino)phenyl)amino)-4-oxobut-2-yn-1-yl)cyclohexane-1-carboxamide] | – | 96.6
